Test results from ChEMBL document CHEMBL1201862, “PubChem BioAssay data set” (2004).
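Method: 48-hour compound exposure of cells in 96-well plates, five concentrations, linear interpolation of endpoints. GI50 = concentration required for 50% inhibition of growth.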 The source made the active and inactive calls. Cut-off read from the data, not from the text of the source: active = GI50 up to about 1.1 µM and inactive = higher.

How the values were obtained:
Assay in all cases: growth of human tumour cells (NCI), 48 h
ACHN = tested on: ACHN
RXF 631 = tested on: RXF 631
KM12 = tested on: KM12
A498 = tested on: A498
Malme-3M = tested on: Malme-3M
IGROV-1 = tested on: IGROV-1
SNB-19 = tested on: SNB-19
HOP-92 = tested on: HOP-92
SK-OV-3 = tested on: SK-OV-3
786-0 = tested on: 786-0
OVCAR-5 = tested on: OVCAR-5
UO-31 = tested on: UO-31
SF-268 = tested on: SF-268
NCI-H460 = tested on: NCI-H460
HL-60 = tested on: HL-60
DLD-1 = tested on: DLD-1
SF-539 = tested on: SF-539
OVCAR-3 = tested on: OVCAR-3
SK-MEL-2 = tested on: SK-MEL-2
HCC 2998 = tested on: HCC 2998
HOP-62 = tested on: HOP-62
DMS-114 = tested on: DMS-114
HT-29 = tested on: HT-29
M14 = tested on: M14
UACC-62 = tested on: UACC-62
XF498 = tested on: XF498
NCI-H522 = tested on: NCI-H522
SK-MEL-28 = tested on: SK-MEL-28
UACC-257 = tested on: UACC-257
CAKI-1 = tested on: CAKI-1
HCT-116 = tested on: HCT-116
SK-MEL-5 = tested on: SK-MEL-5
NCI-H23 = tested on: NCI-H23
K562 = tested on: K562
KM-20L2 = tested on: KM-20L2
SN12C = tested on: SN12C
LOX IMVI = tested on: LOX IMVI
RXF 393 = tested on: RXF 393
RPMI-8226 = tested on: RPMI-8226
DMS-273 = tested on: DMS-273
A549 = tested on: A549
SF-295 = tested on: SF-295
M19-MEL = tested on: M19-MEL
SNB-75 = tested on: SNB-75
MOLT-4 = tested on: MOLT-4
COLO 205 = tested on: COLO 205
U-251 = tested on: U-251
TK-10 = tested on: TK-10
SW-620 = tested on: SW-620
SNB-78 = tested on: SNB-78
CCRF-CEM = tested on: CCRF-CEM
OVCAR-8 = tested on: OVCAR-8
NCI-H226 = tested on: NCI-H226
HCT-15 = tested on: HCT-15
OVCAR-4 = tested on: OVCAR-4
HOP-18 = tested on: HOP-18
EKVX = tested on: EKVX
LXFL 529 = tested on: LXFL 529

Structure (SMILES): C/C=C/C=N/N(C(=O)c1cc([N+](=O)[O-])cc([N+](=O)[O-])c1)C1=NN=C(c2ccccc2)C(c2ccccc2)N1 (configuration not stated)
- GI50 (ACHN): 97.5 µM (inactive)
- GI50 (RXF 631): > 100 µM (inactive)
- GI50 (KM12): 46.2 µM (inactive)
- GI50 (A498): > 100 µM (inactive)
- GI50 (Malme-3M): 25.6 µM (inactive)
- GI50 (IGROV-1): > 100 µM (inactive)
- GI50 (SNB-19): > 100 µM (inactive)
- GI50 (HOP-92): 11.1 µM (inactive)
- GI50 (SK-OV-3): > 100 µM (inactive)
- GI50 (786-0): 80.4 µM (inactive)
- GI50 (OVCAR-5): > 100 µM (inactive)
- GI50 (UO-31): 43.9 µM (inactive)
- GI50 (SF-268): 47.2 µM (inactive)
- GI50 (NCI-H460): 91.2 µM (inactive)
- GI50 (HL-60): 18.6 µM (inactive)
- GI50 (DLD-1): 75.7 µM (inactive)
- GI50 (SF-539): 42.5 µM (inactive)
- GI50 (OVCAR-3): 23.4 µM (inactive)
- GI50 (SK-MEL-2): 74 µM (inactive)
- GI50 (HCC 2998): 34 µM (inactive)
- GI50 (HOP-62): > 100 µM (inactive)
- GI50 (DMS-114): 21 µM (inactive)
- GI50 (HT-29): 35.6 µM (inactive)
- GI50 (M14): 33.3 µM (inactive)
- GI50 (UACC-62): 51.8 µM (inactive)
- GI50 (XF498): 36 µM (inactive)
- GI50 (NCI-H522): 21.4 µM (inactive)
- GI50 (SK-MEL-28): 97.7 µM (inactive)
- GI50 (UACC-257): 26.5 µM (inactive)
- GI50 (CAKI-1): > 100 µM (inactive)
- GI50 (HCT-116): 30.2 µM (inactive)
- GI50 (SK-MEL-5): 27.2 µM (inactive)
- GI50 (NCI-H23): 26.9 µM (inactive)
- GI50 (K562): 52.8 µM (inactive)
- GI50 (KM-20L2): 32.1 µM (inactive)
- GI50 (SN12C): 57.9 µM (inactive)
- GI50 (LOX IMVI): 78.5 µM (inactive)
- GI50 (RXF 393): > 100 µM (inactive)
- GI50 (RPMI-8226): 24.4 µM (inactive)
- GI50 (DMS-273): 46 µM (inactive)
- GI50 (A549): 61.2 µM (inactive)
- GI50 (SF-295): 94.6 µM (inactive)
- GI50 (M19-MEL): 21.6 µM (inactive)
- GI50 (SNB-75): > 100 µM (inactive)
- GI50 (MOLT-4): 25.7 µM (inactive)
- GI50 (COLO 205): 30.5 µM (inactive)
- GI50 (U-251): > 100 µM (inactive)
- GI50 (TK-10): > 100 µM (inactive)
- GI50 (SW-620): 55 µM (inactive)
- GI50 (SNB-78): 52.8 µM (inactive)
- GI50 (CCRF-CEM): 36.7 µM (inactive)
- GI50 (OVCAR-8): 89.9 µM (inactive)
- GI50 (NCI-H226): > 100 µM (inactive)
- GI50 (HCT-15): 41.4 µM
- GI50 (OVCAR-4): 68.4 µM (inactive)
- GI50 (HOP-18): > 100 µM (inactive)
- GI50 (EKVX): > 100 µM (inactive)

Structure (SMILES): COC(=O)C1C=NNC1C(=O)OC (configuration not stated)
- GI50 (ACHN): > 100 µM (inactive)
- GI50 (LXFL 529): > 100 µM (inactive)
- GI50 (RXF 631): > 100 µM (inactive)
- GI50 (KM12): > 100 µM (inactive)
- GI50 (A498): > 100 µM (inactive)
- GI50 (Malme-3M): > 100 µM (inactive)
- GI50 (IGROV-1): > 100 µM (inactive)
- GI50 (SNB-19): 57.3 µM (inactive)
- GI50 (SK-OV-3): > 100 µM (inactive)
- GI50 (786-0): > 100 µM (inactive)
- GI50 (OVCAR-5): > 100 µM (inactive)
- GI50 (UO-31): > 100 µM (inactive)
- GI50 (SF-268): > 100 µM (inactive)
- GI50 (NCI-H460): > 100 µM (inactive)
- GI50 (HL-60): > 100 µM (inactive)
- GI50 (SF-539): > 100 µM (inactive)
- GI50 (OVCAR-3): > 100 µM (inactive)
- GI50 (SK-MEL-2): > 100 µM (inactive)
- GI50 (HCC 2998): > 100 µM (inactive)
- GI50 (HOP-62): > 100 µM (inactive)
- GI50 (DMS-114): > 100 µM (inactive)
- GI50 (HT-29): > 100 µM (inactive)
- GI50 (M14): > 100 µM (inactive)
- GI50 (UACC-62): > 100 µM (inactive)
- GI50 (XF498): > 100 µM (inactive)
- GI50 (NCI-H522): > 100 µM (inactive)
- GI50 (UACC-257): > 100 µM (inactive)
- GI50 (CAKI-1): > 100 µM (inactive)
- GI50 (HCT-116): > 100 µM (inactive)
- GI50 (SK-MEL-5): > 100 µM (inactive)
- GI50 (NCI-H23): > 100 µM (inactive)
- GI50 (K562): > 100 µM (inactive)
- GI50 (KM-20L2): > 100 µM (inactive)
- GI50 (SN12C): > 100 µM (inactive)
- GI50 (LOX IMVI): > 100 µM (inactive)
- GI50 (RXF 393): > 100 µM (inactive)
- GI50 (RPMI-8226): > 100 µM (inactive)
- GI50 (DMS-273): > 100 µM (inactive)
- GI50 (A549): > 100 µM (inactive)
- GI50 (SF-295): > 100 µM (inactive)
- GI50 (M19-MEL): > 100 µM (inactive)
- GI50 (SNB-75): > 100 µM (inactive)
- GI50 (MOLT-4): > 100 µM (inactive)
- GI50 (COLO 205): > 100 µM (inactive)
- GI50 (U-251): > 100 µM (inactive)
- GI50 (TK-10): > 100 µM (inactive)
- GI50 (SW-620): > 100 µM (inactive)
- GI50 (SNB-78): > 100 µM (inactive)
- GI50 (CCRF-CEM): > 100 µM (inactive)
- GI50 (OVCAR-8): > 100 µM (inactive)
- GI50 (NCI-H226): > 100 µM (inactive)
- GI50 (HCT-15): > 100 µM
- GI50 (OVCAR-4): > 100 µM (inactive)
- GI50 (HOP-18): > 100 µM (inactive)
- GI50 (EKVX): > 100 µM (inactive)

Structure (SMILES): COc1ccc2c(c1)CC1c3c(cc4c(c3-2)OCO4)CCN1C (configuration not stated)
- GI50 (ACHN): 16.9 µM (inactive)
- GI50 (LXFL 529): 36.5 µM (inactive)
- GI50 (RXF 631): 24.5 µM (inactive)
- GI50 (KM12): 30.9 µM (inactive)
- GI50 (A498): 14.4 µM (inactive)
- GI50 (Malme-3M): 28 µM (inactive)
- GI50 (IGROV-1): 31.7 µM (inactive)
- GI50 (SNB-19): 42 µM (inactive)
- GI50 (HOP-92): 18.1 µM (inactive)
- GI50 (SK-OV-3): 21.3 µM (inactive)
- GI50 (786-0): 27.6 µM (inactive)
- GI50 (OVCAR-5): 30.1 µM (inactive)
- GI50 (UO-31): 14 µM (inactive)
- GI50 (SF-268): > 10 µM (inactive)
- GI50 (NCI-H460): 24.3 µM (inactive)
- GI50 (DLD-1): 41.9 µM (inactive)
- GI50 (SF-539): 31.3 µM (inactive)
- GI50 (OVCAR-3): 32.5 µM (inactive)
- GI50 (SK-MEL-2): 26.5 µM (inactive)
- GI50 (HCC 2998): 41.1 µM (inactive)
- GI50 (HOP-62): 30.1 µM (inactive)
- GI50 (DMS-114): 24.3 µM (inactive)
- GI50 (HT-29): 27.7 µM (inactive)
- GI50 (M14): 22.8 µM (inactive)
- GI50 (UACC-62): 21.6 µM (inactive)
- GI50 (XF498): 27.7 µM (inactive)
- GI50 (NCI-H522): 15.6 µM (inactive)
- GI50 (SK-MEL-28): 28.8 µM (inactive)
- GI50 (UACC-257): 24.1 µM (inactive)
- GI50 (CAKI-1): 23.9 µM (inactive)
- GI50 (HCT-116): 19.5 µM (inactive)
- GI50 (SK-MEL-5): 16.9 µM (inactive)
- GI50 (NCI-H23): 23.8 µM (inactive)
- GI50 (K562): 23.3 µM (inactive)
- GI50 (KM-20L2): 30.8 µM (inactive)
- GI50 (SN12C): 33.3 µM (inactive)
- GI50 (RPMI-8226): 24.8 µM (inactive)
- GI50 (DMS-273): 25.7 µM (inactive)
- GI50 (A549): 21.4 µM (inactive)
- GI50 (SF-295): 21.6 µM (inactive)
- GI50 (M19-MEL): 21.4 µM (inactive)
- GI50 (SNB-75): 22.6 µM (inactive)
- GI50 (MOLT-4): 20 µM (inactive)
- GI50 (COLO 205): 15.8 µM (inactive)
- GI50 (U-251): 31.6 µM (inactive)
- GI50 (TK-10): 21.1 µM (inactive)
- GI50 (SW-620): 19.5 µM (inactive)
- GI50 (SNB-78): 40.7 µM (inactive)
- GI50 (CCRF-CEM): 23 µM (inactive)
- GI50 (OVCAR-8): 21.6 µM (inactive)
- GI50 (NCI-H226): 24.6 µM (inactive)
- GI50 (HCT-15): 36.9 µM
- GI50 (OVCAR-4): 23.1 µM (inactive)
- GI50 (HOP-18): 21.4 µM (inactive)
- GI50 (EKVX): 33.4 µM (inactive)
